Patent publication US20080269266A1, “NOVEL COMPOUNDS 747” (ASTRAZENECA AB, priority 2007, published 2008)

What was measured:
[1] = LogD (shake flask method); type: physicochemical
Source text: LogD can be measured using the generic shake flask method as described in Lars-Goran Danielsson, Yu Hui Zhang, Trends in Analytical Chemistry, 1996, 15(4), 188-196, and also by the method described in B. Law and D. Temesi, J. Chromatogr. B 748 (2000), 21-30.

human IGF1R = biological target: T1, human IGF1R (Homo sapiens, UniProt P08069); experiment: Inhibition of Insulin-Like Growth Factor-1 Receptor Phosphorylation in R+ cells; type: cell-based; conditions: median; R+ cells stimulated with 30 nM IGF1
T1 construct: expressed in transfected cells; host or cells: R+ cells (R- mouse fibroblasts transfected with human IGF1R)
Protocol: This immunofluorescence end point cell assay measures the ability of a test compound to reduce the measured levels of IGF1R phosphorylation after IGF1 stimulation in R cells. R^+ cells are derived by transfection of R^− mouse fibroblast cells with human IGF1R. R^+ cells are routinely cultured in DMEM growth medium (Gibco BRL, 41966) containing 2 mM L-Glutamine (Invitrogen Code no. 25030-024) and 10% (v/v) foetal bovine serum (FBS)) in a 5% CO2 air incubator at 37° C.
To undertake the assay, the R^+ cells are seeded at 5×10^3 cells/well in DMEM plus 1% foetal calf serum, 1% L-glutamine in 96-well black Packard View plates (PerkinElmer 6005182) and incubated at 37° C. (+5% CO2) in a humidified incubator. […]
Following the compound treatment, the R^+ cells are stimulated with a final concentration of 30 nM IGF1 (Gropep IM001) for 20 minutes at 37° C. […] Additionally, in-house antibodies raised against phospho IGF1R were also used at a suitable titre determined for each batch. […]
The Green Fluorescent phospho IGF1R-associated signal in each well was measured using an Acumen Explorer HTS Reader (TTP Labtech Ltd., Cambridge). Phospho IGF1R-associated fluorescence emission can be detected at 530 nm following excitation at 488 nm. […] These fluorescent objects can be quantified and provide a measure of the phospho IGF1R levels in cells. […]

[2] = biological target: hERG (human ether-a-go-go-related gene) ion channel (Homo sapiens, UniProt Q12809); experiment: hERG; type: cell-based
Source text: Conclusion: Compounds of the present invention (Example 1) while showing good IGF inhibition, also show decreased Cytochrome P450 inhibition when compared to a known IGF inhibitor (Comparative Example A). Low inhibition of Cytochrome P450 is desirable to ameliorate potential drug: drug interactions. hERG hERG can be tested according to the methods described in Journal of Pharmacolgical and Toxicological Methods 2006, 54, 189-199.

T1 sequence (P08069 31-1367): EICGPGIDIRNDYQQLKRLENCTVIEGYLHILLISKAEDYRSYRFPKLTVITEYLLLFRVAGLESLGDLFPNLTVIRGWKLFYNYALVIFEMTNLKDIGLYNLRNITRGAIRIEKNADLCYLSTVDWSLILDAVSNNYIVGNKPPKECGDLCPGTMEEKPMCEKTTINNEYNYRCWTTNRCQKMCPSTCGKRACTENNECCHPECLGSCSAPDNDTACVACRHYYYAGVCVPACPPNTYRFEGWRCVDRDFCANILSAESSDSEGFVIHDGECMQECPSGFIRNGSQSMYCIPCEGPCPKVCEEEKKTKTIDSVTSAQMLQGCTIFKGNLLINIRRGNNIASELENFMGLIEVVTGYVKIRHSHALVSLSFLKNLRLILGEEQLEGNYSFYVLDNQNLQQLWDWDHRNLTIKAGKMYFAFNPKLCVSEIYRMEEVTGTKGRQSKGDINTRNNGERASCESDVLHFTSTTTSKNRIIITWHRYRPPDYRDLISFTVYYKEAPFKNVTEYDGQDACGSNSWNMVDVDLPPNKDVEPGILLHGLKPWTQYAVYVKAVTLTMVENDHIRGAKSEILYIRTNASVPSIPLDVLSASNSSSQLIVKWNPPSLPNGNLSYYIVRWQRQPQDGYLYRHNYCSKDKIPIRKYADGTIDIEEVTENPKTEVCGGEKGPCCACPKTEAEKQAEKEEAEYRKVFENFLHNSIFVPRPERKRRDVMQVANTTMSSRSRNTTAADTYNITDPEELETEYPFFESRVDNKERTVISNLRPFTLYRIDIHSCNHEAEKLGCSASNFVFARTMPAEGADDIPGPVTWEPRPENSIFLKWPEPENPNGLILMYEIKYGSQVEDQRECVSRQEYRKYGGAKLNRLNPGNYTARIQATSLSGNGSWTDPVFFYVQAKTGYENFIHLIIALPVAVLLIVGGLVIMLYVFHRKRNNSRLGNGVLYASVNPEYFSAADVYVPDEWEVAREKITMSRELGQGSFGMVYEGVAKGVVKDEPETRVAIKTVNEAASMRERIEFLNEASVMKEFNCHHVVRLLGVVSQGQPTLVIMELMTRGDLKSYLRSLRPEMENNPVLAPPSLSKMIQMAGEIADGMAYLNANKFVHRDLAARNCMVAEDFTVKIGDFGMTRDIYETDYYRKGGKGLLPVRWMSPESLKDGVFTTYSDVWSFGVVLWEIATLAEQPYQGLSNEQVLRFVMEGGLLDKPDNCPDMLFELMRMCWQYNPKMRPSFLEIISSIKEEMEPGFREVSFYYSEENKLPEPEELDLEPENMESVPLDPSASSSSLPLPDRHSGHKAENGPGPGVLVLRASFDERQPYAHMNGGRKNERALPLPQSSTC
Chain of hERG (human ether-a-go-go-related gene) ion channel (Q12809 whole entry): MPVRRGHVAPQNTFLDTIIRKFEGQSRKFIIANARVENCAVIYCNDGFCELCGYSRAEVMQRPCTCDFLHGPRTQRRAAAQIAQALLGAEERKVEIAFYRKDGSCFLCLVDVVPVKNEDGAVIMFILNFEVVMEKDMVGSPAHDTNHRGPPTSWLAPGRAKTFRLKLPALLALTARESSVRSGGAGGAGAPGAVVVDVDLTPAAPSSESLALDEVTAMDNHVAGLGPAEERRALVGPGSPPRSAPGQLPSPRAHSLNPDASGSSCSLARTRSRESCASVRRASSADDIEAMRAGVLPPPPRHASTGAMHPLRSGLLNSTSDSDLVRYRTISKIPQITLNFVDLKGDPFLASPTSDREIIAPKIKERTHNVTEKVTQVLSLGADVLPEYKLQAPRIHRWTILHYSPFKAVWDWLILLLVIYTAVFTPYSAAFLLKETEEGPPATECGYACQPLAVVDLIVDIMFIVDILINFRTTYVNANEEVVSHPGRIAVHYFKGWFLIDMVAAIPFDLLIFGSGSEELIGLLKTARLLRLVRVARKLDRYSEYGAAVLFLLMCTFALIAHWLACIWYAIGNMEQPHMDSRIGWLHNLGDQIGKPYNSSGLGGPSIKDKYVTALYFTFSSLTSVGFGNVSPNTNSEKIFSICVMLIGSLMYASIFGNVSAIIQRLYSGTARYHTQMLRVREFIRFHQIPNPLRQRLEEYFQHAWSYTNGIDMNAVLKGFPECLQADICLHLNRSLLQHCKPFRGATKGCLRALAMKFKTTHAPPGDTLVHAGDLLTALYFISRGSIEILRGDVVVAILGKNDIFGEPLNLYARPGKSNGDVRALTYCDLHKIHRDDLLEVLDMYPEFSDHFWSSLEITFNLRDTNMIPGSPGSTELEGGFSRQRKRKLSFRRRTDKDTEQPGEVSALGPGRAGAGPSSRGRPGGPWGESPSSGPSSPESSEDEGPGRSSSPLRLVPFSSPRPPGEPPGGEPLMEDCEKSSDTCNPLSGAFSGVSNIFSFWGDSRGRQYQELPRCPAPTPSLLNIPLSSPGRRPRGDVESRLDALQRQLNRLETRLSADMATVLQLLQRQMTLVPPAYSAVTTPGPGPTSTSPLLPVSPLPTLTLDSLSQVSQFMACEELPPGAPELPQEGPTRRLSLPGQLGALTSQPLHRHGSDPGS

COc1cc(Nc2cc(C)n[nH]2)nc(N2CCC[C@H]2c2cc(-c3ncccn3)no2)n1 [Example 1, (S)-6-Methoxy-2-{2-[3-(pyrimid-2-yl)isoxazol-5-yl]pyrrolidin-1-yl}-4-(5-methyl-1H-pyrazol-3-ylamino)pyrimidine]
logD [1]: 3.12 | IC50 (human IGF1R): 4.29 nM | IC50 [2]: > 32000 nM

CCc1cc(Nc2cc(OC)nc(N3CCC[C@H]3c3cc(-c4ncccn4)no3)n2)n[nH]1 [Comparative Example A, (S)-6-Methoxy-2-{2-[3-(pyrimid-2-yl)isoxazol-5-yl]pyrrolidin-1-yl}-4-(5-ethyl-1H-pyrazol-3-ylamino)pyrimidine]
logD [1]: 3.43 | IC50 (human IGF1R): 2.68 nM | IC50 [2]: 25200 nM
